“Also recorded” adds a separate entry of the source.
Tests used:
Format in all cases: in vivo, human
GH = assay: 24-h mean GH levels, blood sampled every 10 minutes for 24 hours, chemiluminescence assay, 2-year placebo-controlled trial; details: for 24-h mean GH, mean (range) fold-change / 24-h mean GH level in a person: 25 mg p.o. daily; for 24-h mean GH, mean (range) fold-change: N=43, ratio of geometric means; for 24-h mean GH level in a person: baseline 0.37
Protocol: Sixty-five healthy men and women (±HRT) ages 60-81 years were enrolled in a 2-year study of MK-677 (25 mg p.o. daily) or placebo. In addition to GH and IGF-I, the primary endpoints were fat-free mass (FFM), by 4-compartment model and DXA, and abdominal visceral fat (AVF) by CT. Secondary endpoints included isokinetic strength, function and quality of life (QoL); all endpoints were assessed at baseline and every 6 months, with frequent monitoring for adverse effects.
This NIH-funded study was approved by the General Clinical Research Center (GCRC) and the University of Virginia Institutional Review Boards. All subjects gave written informed consent. A two-year, double-blind, placebo-controlled modified crossover trial of once-daily administration of an oral GH secretogogue (MK-677, 25 mg) to healthy older adults was performed.
During the first year, subjects were randomized to MK-677 or placebo treatment. In each of 3 groups (23 men, 25 women on hormone replacement therapy (HRT) and 17 women not on HRT), ⅔ received MK-677 and ⅓ received placebo. At the end of year 1, the subjects who received placebo were switched to MK-677 treatment (N= 2/0 in year 2); subjects who received MK-677 for the first year were randomized to continue MK-677 (N=20) or to placebo (N=19).
Growth hormone (GH) concentrations and pulsatile characteristics. Blood samples were obtained every 10 minutes for 24 hours for measurement of GH in a sensitive chemiluminescence assay (2); endogenous GH secretory dynamics were assessed using an automated multiple-parameter deconvolution method as previously reported (1;3).
The primary outcome data for the 6- and 12-month changes in FFM and AVF as well as for IGF-I and GH were analyzed via repeated measures ANCOVA. The FFM and AVF data were analyzed on the same scale as they were measured, while the IGF-I and GH data were transformed to the natural logarithmic scale before conducting the statistical analyses so that the variance and normality assumptions of the linear model were not violated.
Since the FFM and AVF data were analyzed on the same scale as initially measured, the 6- and 12-month changes are reported as a difference between arithmetic means; changes in IGF-I and GH data analyzed on the natural algorithmic scale are reported as a ratio of geometric means.

IGF-I = assay: Serum total IGF-I levels (Immulite 2000) in the 2-year placebo-controlled trial; details: for IGF-I levels after withdrawal of MK-677 or switch to placebo: after crossover to placebo in year 2 or 3 and 6 months after withdrawal
Protocol: Sixty-five healthy men and women (±HRT) ages 60-81 years were enrolled in a 2-year study of MK-677 (25 mg p.o. daily) or placebo. In addition to GH and IGF-I, the primary endpoints were fat-free mass (FFM), by 4-compartment model and DXA, and abdominal visceral fat (AVF) by CT. Secondary endpoints included isokinetic strength, function and quality of life (QoL); all endpoints were assessed at baseline and every 6 months, with frequent monitoring for adverse effects. This NIH-funded study was approved by the General Clinical Research Center (GCRC) and the University of Virginia Institutional Review Boards. All subjects gave written informed consent. A two-year, double-blind, placebo-controlled modified crossover trial of once-daily administration of an oral GH secretogogue (MK-677, 25 mg) to healthy older adults was performed. During the first year, subjects were randomized to MK-677 or placebo treatment. In each of 3 groups (23 men, 25 women on hormone replacement therapy (HRT) and 17 women not on HRT), ⅔ received MK-677 and ⅓ received placebo. At the end of year 1, the subjects who received placebo were switched to MK-677 treatment (N= 2/0 in year 2); subjects who received MK-677 for the first year were randomized to continue MK-677 (N=20) or to placebo (N=19). Assays and Insulin Sensitivity. Plasma glucose was measured on a Beckman analyzer and insulin and total IGF-I were measured in the GCRC Core Laboratory on an Immulite 2000 (Diagnostic Products Corporation, Los Angeles, Calif.). Additional safety laboratory tests were performed by standard methods in the UVA Clinical Laboratories. Fasting insulin and glucose were used to estimate insulin sensitivity by the Quicki method (4). The primary outcome data for the 6- and 12-month changes in FFM and AVF as well as for IGF-I and GH were analyzed via repeated measures ANCOVA. The FFM and AVF data were analyzed on the same scale as they were measured, while the IGF-I and GH data were transformed to the natural logarithmic scale before conducting the statistical analyses so that the variance and normality assumptions of the linear model were not violated. Since the FFM and AVF data were analyzed on the same scale as initially measured, the 6- and 12-month changes are reported as a difference between arithmetic means; changes in IGF-I and GH data analyzed on the natural algorithmic scale are reported as a ratio of geometric means.

[1] = Function tests and quality of life questionnaires; details: year 1
Protocol: Quality of Life Assessments. Subjects completed 4 questionnaires to assess quality of life and general well-being: the 20-item Short Form Health Survey (SF-20); Beck Depression Inventory (BDI); Pittsburgh Sleep Quality Index (PSQI); and the Body Cathexis Scale (BCS).
Function. Function tests included walking 30 meters as quickly as possible, walking as far as possible in 6 minutes, descending and ascending 4 flights of stairs and rising and sitting 5 times from an armless chair with an 18″ seat height.
Correction for Height and Gender. All strength and function measurements were analyzed per kg of skeletal muscle (ASM). Baseline arm ASM and leg ASM were used for shoulder and knee strength, respectively; baseline TASM (sum of arms and legs) was used for the function tests.
With regard to the quality of life data, a Factor Analysis of the different scales of the questionnaires was performed to create an overall well-being factor (16). Initially, study subjects were used as their own internal controls and assessed if there was change over time in overall well being. Using the hierarchical linear modeling (HLM), a growth curve analysis was conducted, testing within-person linear and curvilinear change in overall well being over time.

[2] = Glucose metabolism: insulin sensitivity by Quicki, hemoglobin A1c
Protocol: Assays and Insulin Sensitivity. Plasma glucose was measured on a Beckman analyzer and insulin and total IGF-I were measured in the GCRC Core Laboratory on an Immulite 2000 (Diagnostic Products Corporation, Los Angeles, Calif.). Additional safety laboratory tests were performed by standard methods in the UVA Clinical Laboratories. Fasting insulin and glucose were used to estimate insulin sensitivity by the Quicki method (4).
In each of the 2 years, volunteers were seen monthly the first 3 months and every 3 months thereafter for a physical examination, documentation of medications and vital signs, routine laboratory tests and detailed questioning about possible side effects. Fasting blood glucose and hemoglobin Alc (HBAlc) were monitored for possible changes with MK-677 treatment, since increased blood glucose had been observed in previous studies (11;15).

Which results are given for `CC(C)(N)C(=O)N[C@H](COCc1ccccc1)C(=O)N1CCC2(CC1)CN(S(C)(=O)=O)c1ccccc12.CS(=O)(=O)O` [MK-677, N-[1(R)-[(1,2-dihydro-1-methanesulfonylspiro[3H-indole-3,4′-piperidin]-1′-yl)carbonyl]-2-(phenylmethyloxy)ethyl]-2-amino-2-methylpropanamide methanesulfonate]?
24-h mean GH, mean (range) fold-change (GH; 6 months): 1.9 (1.6-2.2) fold; 24-h mean GH level in a person (GH; 6 months): 1.0 µg/L; 24-h mean GH, mean (range) fold-change (GH; 12 months): 1.8 (1.6-2.0) fold; 24-h mean GH level in a person (GH; 12 months): 0.86 µg/L; Deconvolution analysis of the increase in GH (GH; secretion per peak vs. peak frequency): increased secretion per peak; IGF-I levels after withdrawal of MK-677 or switch to placebo (IGF-I; listed as Mk-677, methanesulfonate): fell to baseline levels; IGF-I levels after withdrawal of MK-677 or switch to placebo (IGF-I; methanesulfonate): returned to pre-treatment levels; fold increase in IGF-I levels (IGF-I; at 6 and 12 months, 25 mg p.o. daily, N=43): 1.5 fold; IGF-I levels relative to normal range for young adults aged 21-25 (116-358 μg/L) (IGF-I; first year, 25 mg p.o. daily, methanesulfonate): levels in the young adult normal range; also recorded: increased into the normal range for young adults; function or QoL [1]: did not result in changes; Insulin resistance estimated by Quicki ([2]; after 6 and 12 months of treatment, vs. placebo): increased significantly; hemoglobin A1c levels ([2]; most subjects on MK-677): slight elevations
